Data: patent US6482984B2 (priority 2000, dated 2002)

Legend:
Assay type in all cases: in vivo
[1] = system: powdery mildew of wheat (Erysiphe graminis forma specialis tritici); test: Activity against powdery mildew of wheat (protective spray, potted wheat seedlings); details: 1 ppm active ingredient; wheat seedlings c.v. Frühgold; dusted with spores 24 hours after spraying; scored visually after 7 days; untreated plants infected to 90%
Description: (§1) The active ingredients were formulated as a 10% strength emulsion in a mixture of 63% by weight of cyclohexanone and 27% by weight of emulsifier and diluted to the desired concentration with water.
Leaves of potted wheat seedlings c.v. “Frühgold” were sprayed to run off point with an aqueous preparation of active ingredient which had been prepared using a stock solution of 10% of active ingredient, 63% of cyclohexanone and 27% of emulsifier and, 24 hours after the spray coating had dried on, dusted with spores of powdery mildew of wheat (Erysiphe graminis forma specialis tritici). The test plants were subsequently placed in a greenhouse at 20-24° C. and 60-90% relative atmospheric humidity. After 7 days, the extent of the mildew development was scored visually in % infection of the total leaf area.

[2] = system: Puccinia recondita; test: Curative activity against Puccinia recondita on wheat (leaf rust of wheat); details: 16 ppm active ingredient; wheat seedlings c.v. Kanzler; sprayed the day after infection (curative); 7 days in greenhouse; untreated plants infected to 95%
Description: as §1
Leaves of potted wheat seedlings c.v. “Kanzler” were dusted with leaf rust spores (Puccinia recondita). The pots were then placed for 24 hours in a chamber with high atmospheric humidity (90 to 95%) at 20 to 22° C. During this time, the spores germinated, and the germinal tubes penetrated the leaf tissue. The next day, the infected plants were sprayed to run off point with an aqueous preparation of active ingredient which had been prepared using a stock solution of 10% of active ingredient, 63% of cyclohexanone and 27% of emulsifier. After the spray coating had dried on, the test plants were cultivated for 7 days in a greenhouse at 20-22° C. and a relative atmospheric humidity of 65-70%. The extent of rust development on the leaves was then determined.

[3] = system: Pyricularia oryzae; details: 63 ppm active ingredient; rice seedlings c.v. Tai-Nong 67; inoculated the day after spraying (protective); 6 days; determined visually; untreated plants infected to 85%

| Compound | extent of the mildew development, % infection of the total leaf area [1] | extent of rust development on the leaves (infection) [2] [%] | extent of the development of the infection on the leaves [3] [%] |
| --- | --- | --- | --- |
| CNC(=O)/C(=N/OC)c1ccccc1COc1ccc(OC(C)/C(C)=N/OC)cc1C (stereo not shown) [I-1, 2-Methoxyimino-2-{2-[4-(2-methoxyimino-1-methyl-propoxy)-2-methylphenoxymethyl]phenyl}-N-methyl-acetamide] | no infection | – | – |
| CNC(=O)/C(=N/OC)c1ccccc1COc1ccccc1C [compound A] | 60% | 60 | 25 |
| CNC(=O)/C(=N/OC)c1ccccc1COc1ccc(/C(C)=N/OC)cc1C [compound B] | 25% | 25 | 40 |
